Data taken from the supplement of paper PMC10307832.

Assays:
Assay in all cases: relative viability (nuclei count vs DMSO), 5 days (fraction); higher = more cells survive
QS11 + Olaparib = compound: C1CC2=C(C1)C=C(C=C2)OC3=NC(=C4C(=N3)N(C=N4)CC5=CC=C(C=C5)C6=CC=CC=C6)N[C@@H](CC7=CC=CC=C7)CO [QS11] + O=C(c1cc(Cc2n[nH]c(=O)c3ccccc23)ccc1F)N1CCN(C(=O)C2CC2)CC1 [Olaparib] (partner 8 µM)
Procedure, shortened: (§1)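 A single step with final 0.05% Triton X-100, 1% formaldehyde and 1 ug/ml Hoechst fixed the cells and stained nuclei 5 days after treatment. Lung cancer cell lines in 1536-well plates had been treated by pin tool the day after seeding with one drug alone or a fixed anchor-drug dose plus five library-drug doses (not always all listed) in √10 steps, and nuclei were counted on 4× images. Relative viability is the ratio of nuclei in treated wells to nuclei in vehicle wells, taken as the median of duplicate plates.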

AZ628 + Olaparib = compound: CC1=C(C=C(C=C1)NC(=O)C2=CC(=CC=C2)C(C)(C)C#N)NC3=CC4=C(C=C3)N=CN(C4=O)C [AZ628] + O=C(c1cc(Cc2n[nH]c(=O)c3ccccc23)ccc1F)N1CCN(C(=O)C2CC2)CC1 [Olaparib] (partner 8 µM)
Procedure, shortened: as §1

AZ628 + Phenformin = compound: CC1=C(C=C(C=C1)NC(=O)C2=CC(=CC=C2)C(C)(C)C#N)NC3=CC4=C(C=C3)N=CN(C4=O)C [AZ628] + N=C(N)NC(=N)NCCc1ccccc1 [Phenformin] (partner 250 µM)
Procedure, shortened: as §1

AZ628 + Pemetrexed = compound: CC1=C(C=C(C=C1)NC(=O)C2=CC(=CC=C2)C(C)(C)C#N)NC3=CC4=C(C=C3)N=CN(C4=O)C [AZ628] + Nc1nc2[nH]cc(CCc3ccc(C(=O)N[C@@H](CCC(=O)O)C(=O)O)cc3)c2c(=O)[nH]1 [Pemetrexed] (partner 0.2 µM)
Procedure, shortened: as §1

Cell Line	relative viability (QS11 + Olaparib; first compound 0.08 µM)	relative viability (QS11 + Olaparib; first compound 0.253 µM)	relative viability (QS11 + Olaparib; first compound 0.8 µM)	relative viability (QS11 + Olaparib; first compound 2.53 µM)	relative viability (QS11 + Olaparib; first compound 8 µM)	relative viability (AZ628 + Olaparib; first compound 0.08 µM)	relative viability (AZ628 + Olaparib; first compound 0.253 µM)	relative viability (AZ628 + Olaparib; first compound 0.8 µM)	relative viability (AZ628 + Olaparib; first compound 2.53 µM)	relative viability (AZ628 + Olaparib; first compound 8 µM)	relative viability (AZ628 + Phenformin; first compound 0.08 µM)	relative viability (AZ628 + Phenformin; first compound 0.253 µM)	relative viability (AZ628 + Phenformin; first compound 0.8 µM)	relative viability (AZ628 + Phenformin; first compound 2.53 µM)	relative viability (AZ628 + Phenformin; first compound 8 µM)	relative viability (AZ628 + Pemetrexed; first compound 0.08 µM)	relative viability (AZ628 + Pemetrexed; first compound 0.253 µM)	relative viability (AZ628 + Pemetrexed; first compound 0.8 µM)	relative viability (AZ628 + Pemetrexed; first compound 2.53 µM)	relative viability (AZ628 + Pemetrexed; first compound 8 µM)
201T	0.876	1.05	0.699	0.898	0.718	0.909	0.865	0.908	0.868	0.926	0.507	0.455	0.245	0.438	0.445	0.347	0.345	0.308	0.339	0.352
A549	0.197	0.339	0.37	0.284	0.574	0.299	0.28	0.495	0.348	0.199	0.19	0.161	0.136	0.135	0.141					
A-427	0.756	0.67		0.656	0.559	0.85	0.73	0.773	0.691	0.541	0.207	0.242	0.25	0.245	0.181	1.12	0.97	1.01	0.957	0.609
ABC-1	0.655	0.833	0.85	0.563	1.04	0.987	0.712	0.868	0.508	0.732	0.274	0.188	0.205	0.211	0.235					
BEN	0.667	1.1	1.03	1.01	0.992	1.26	0.912	0.995	1.03	1.02	0.265	0.331	0.268	0.27	0.231	0.776	0.614	0.737	0.716	0.749
CAL-12T	0.722	0.693	0.67	0.727	0.603	0.713	0.68	0.781	0.637	0.457	0.553	0.492	0.335	0.414	0.336	1.37	1.18	1.15	1.33	0.716
COR-L23	0.302	0.322	0.303	0.271	0.288	0.459	0.365	0.444	0.448	0.317	0.54	0.476	0.433	0.445	0.333	0.22	0.23	0.198	0.219	0.21
COR-L 105	0.764	0.56	0.674	0.716	0.66	0.754	0.83	0.704	0.684	0.816	0.541	0.483	0.4	0.488	0.323	1.35	1.03	1.18	1.16	1.03
Calu-6	0.626	0.613	0.603	0.638	0.59	0.595	0.491	0.496	0.41	0.16										
ChaGo-K-1		0.448	0.352	0.397	0.387	0.456	0.389	0.422	0.452	0.453	0.559	0.464	0.398	0.459	0.373	0.27	0.277	0.262	0.298	0.243
EBC-1	0.758	0.813	0.675	0.644	0.68	0.609	0.615	0.737	0.684	0.314										
EKVX	0.829	0.768	0.715	0.822	1.01	0.926	0.768	0.947	0.914	0.79	0.241	0.222	0.187	0.232	0.211	0.419	0.422	0.338	0.407	0.312
EMC-BAC-2	0.461	0.492	0.464	0.492	0.44	0.566	0.581	0.612	0.558	0.746	0.584	0.57	0.432	0.602	0.505	0.481	0.494	0.476	0.516	0.589
EPLC-272H	0.707	0.888	0.716	0.808	0.505	0.492	0.663	0.603	0.568	0.452	0.419	0.37	0.363	0.302	0.2	0.229	0.309	0.265	0.293	0.248
H3255	0.548	0.588	0.456	0.567	0.534	0.561	0.557	0.596	0.611	0.427	0.41	0.33	0.337	0.393	0.302	0.563	0.486	0.597	0.537	0.504
HARA	0.729		0.473	0.919	0.803	0.762	0.764	0.869	0.84	0.51	0.527	0.402	0.409	0.465	0.376	0.255	0.221	0.226	0.231	0.193
HCC-15	0.668	0.79	0.61	0.735	0.634	0.712	0.747	0.737	0.738	0.53	0.479	0.4	0.366	0.417	0.224	0.231	0.204	0.211	0.226	0.206
HCC-44	1.05	1.09	0.597	0.989	0.987	1.01	0.999	0.977	0.972	0.974	0.218	0.0997	0.136	0.115	0.203	0.629	0.682	0.643	0.706	0.679
